In paper PMC3004370, “PI3Kα Inhibitors That Inhibit Metastasis” (Oncotarget, 2010):

How the values were obtained:
PKCθ = target: T1, PKCθ (Homo sapiens, UniProt Q04759); experiment: Millipore KinaseProfiler; format: biochemical; conditions: read-out: % of control
T1 construct: purchased Millipore (KinaseProfiler service)
Description: (§1) Supplement oncotarget-01-339-s001.doc, table 1: Supplementary Table 1. Millipore KinaseProfiler excerpt | column: % of control

ACK1 = target: T2, ACK1 (Homo sapiens, UniProt Q07912); experiment: Millipore KinaseProfiler; format: biochemical; conditions: read-out: % of control
T2 construct: purchased Millipore (KinaseProfiler service)
Description: as §1

Mer = target: T3, Mer (Homo sapiens, UniProt Q12866); experiment: Millipore KinaseProfiler; format: biochemical; conditions: read-out: % of control
T3 construct: purchased Millipore (KinaseProfiler service)
Description: as §1

CLK2 = target: T4, CLK2 (Homo sapiens, UniProt P49760); experiment: Millipore KinaseProfiler; format: biochemical; conditions: read-out: % of control
T4 construct: purchased Millipore (KinaseProfiler service)
Description: as §1

cSRC = target: T5, cSRC (Homo sapiens, UniProt P12931); experiment: Millipore KinaseProfiler; format: biochemical; conditions: read-out: % of control
T5 construct: purchased Millipore (KinaseProfiler service)
Description: as §1

Yes = target: T6, Yes (Homo sapiens, UniProt P07947); experiment: Millipore KinaseProfiler; format: biochemical; conditions: read-out: % of control
T6 construct: purchased Millipore (KinaseProfiler service)
Description: as §1

Ret = target: T7, Ret (Homo sapiens, UniProt P07949); experiment: Millipore KinaseProfiler; format: biochemical; conditions: read-out: % of control
T7 construct: purchased Millipore (KinaseProfiler service)
T7 sequence (P07949 29-1114): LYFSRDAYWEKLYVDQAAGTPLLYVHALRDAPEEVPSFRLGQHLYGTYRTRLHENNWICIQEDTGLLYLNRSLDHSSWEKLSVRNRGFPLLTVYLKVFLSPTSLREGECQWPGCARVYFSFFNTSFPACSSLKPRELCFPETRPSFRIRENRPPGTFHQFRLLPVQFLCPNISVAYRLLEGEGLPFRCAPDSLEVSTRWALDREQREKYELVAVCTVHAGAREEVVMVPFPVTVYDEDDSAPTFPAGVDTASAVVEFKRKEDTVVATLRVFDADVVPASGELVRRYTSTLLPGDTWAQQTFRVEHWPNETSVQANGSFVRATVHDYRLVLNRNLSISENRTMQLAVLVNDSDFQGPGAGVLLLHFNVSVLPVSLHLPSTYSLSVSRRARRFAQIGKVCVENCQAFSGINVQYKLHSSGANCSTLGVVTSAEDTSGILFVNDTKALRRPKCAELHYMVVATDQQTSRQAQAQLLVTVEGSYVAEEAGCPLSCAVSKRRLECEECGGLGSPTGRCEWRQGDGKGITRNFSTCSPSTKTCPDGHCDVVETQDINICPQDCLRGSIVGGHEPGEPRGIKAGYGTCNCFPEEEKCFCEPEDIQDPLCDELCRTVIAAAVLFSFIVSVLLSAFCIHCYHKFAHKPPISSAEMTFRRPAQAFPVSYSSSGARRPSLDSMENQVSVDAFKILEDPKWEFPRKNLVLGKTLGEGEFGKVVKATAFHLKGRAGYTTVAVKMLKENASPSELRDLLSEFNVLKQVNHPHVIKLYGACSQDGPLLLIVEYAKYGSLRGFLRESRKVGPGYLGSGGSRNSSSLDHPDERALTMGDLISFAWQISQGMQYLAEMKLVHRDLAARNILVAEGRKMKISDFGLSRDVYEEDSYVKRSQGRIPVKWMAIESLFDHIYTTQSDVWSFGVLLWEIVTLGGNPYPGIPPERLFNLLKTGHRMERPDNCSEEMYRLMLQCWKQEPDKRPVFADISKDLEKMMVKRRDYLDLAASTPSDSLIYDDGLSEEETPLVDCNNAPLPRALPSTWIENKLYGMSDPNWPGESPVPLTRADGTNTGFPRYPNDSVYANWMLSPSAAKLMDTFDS
Description: as §1

Src(1-530) = target: T8, Src(1-530) (Homo sapiens, UniProt P12931); experiment: Millipore KinaseProfiler; format: biochemical; conditions: read-out: % of control
T8 construct: Src(1-530); purchased Millipore (KinaseProfiler service)
Description: as §1

PTK5 = target: T9, PTK5 (Homo sapiens, UniProt P42685); experiment: Millipore KinaseProfiler; format: biochemical; conditions: read-out: % of control
T9 construct: purchased Millipore (KinaseProfiler service)
Description: as §1

EphB1 = target: T10, EphB1 (Homo sapiens, UniProt P54762); experiment: Millipore KinaseProfiler; format: biochemical; conditions: read-out: % of control
T10 construct: purchased Millipore (KinaseProfiler service)
Description: as §1

TrkA = target: T11, TrkA (Homo sapiens, UniProt P04629); experiment: Millipore KinaseProfiler; format: biochemical; conditions: read-out: % of control
T11 construct: purchased Millipore (KinaseProfiler service)
Description: as §1

Haspin = target: T12, Haspin (Homo sapiens, UniProt Q8TF76); experiment: Millipore KinaseProfiler; format: biochemical; conditions: read-out: % of control
T12 construct: purchased Millipore (KinaseProfiler service)
Description: as §1

IRAK4 = target: T13, IRAK4 (Homo sapiens, UniProt Q9NWZ3); experiment: Millipore KinaseProfiler; format: biochemical; conditions: read-out: % of control
T13 construct: purchased Millipore (KinaseProfiler service)
T13 sequence (Q9NWZ3 whole entry): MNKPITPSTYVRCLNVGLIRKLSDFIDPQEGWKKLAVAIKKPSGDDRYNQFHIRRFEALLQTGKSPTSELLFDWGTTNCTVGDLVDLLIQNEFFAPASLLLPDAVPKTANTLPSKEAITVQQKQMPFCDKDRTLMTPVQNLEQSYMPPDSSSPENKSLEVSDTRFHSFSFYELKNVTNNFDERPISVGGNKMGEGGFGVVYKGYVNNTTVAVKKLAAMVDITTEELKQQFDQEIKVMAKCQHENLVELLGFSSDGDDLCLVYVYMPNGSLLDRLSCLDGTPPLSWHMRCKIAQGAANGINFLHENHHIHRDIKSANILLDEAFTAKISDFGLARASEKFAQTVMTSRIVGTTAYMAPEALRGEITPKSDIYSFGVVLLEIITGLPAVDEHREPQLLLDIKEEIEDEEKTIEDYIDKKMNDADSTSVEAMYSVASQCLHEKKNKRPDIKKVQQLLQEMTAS
Description: as §1

Flt3 = target: T14, Flt3 (Homo sapiens, UniProt P36888); experiment: Millipore KinaseProfiler; format: biochemical; conditions: read-out: % of control
T14 construct: purchased Millipore (KinaseProfiler service)
Description: as §1

Flt3(D835Y) = target: T15, Flt3(D835Y) (Homo sapiens, UniProt P36888, D835Y); experiment: Millipore KinaseProfiler; format: biochemical; conditions: read-out: % of control
T15 construct: purchased Millipore (KinaseProfiler service)
Description: as §1

LIMK1 = target: T16, LIMK1 (Homo sapiens, UniProt P53667); experiment: Millipore KinaseProfiler; format: biochemical; conditions: read-out: % of control
T16 construct: purchased Millipore (KinaseProfiler service)
T16 sequence (P53667 whole entry): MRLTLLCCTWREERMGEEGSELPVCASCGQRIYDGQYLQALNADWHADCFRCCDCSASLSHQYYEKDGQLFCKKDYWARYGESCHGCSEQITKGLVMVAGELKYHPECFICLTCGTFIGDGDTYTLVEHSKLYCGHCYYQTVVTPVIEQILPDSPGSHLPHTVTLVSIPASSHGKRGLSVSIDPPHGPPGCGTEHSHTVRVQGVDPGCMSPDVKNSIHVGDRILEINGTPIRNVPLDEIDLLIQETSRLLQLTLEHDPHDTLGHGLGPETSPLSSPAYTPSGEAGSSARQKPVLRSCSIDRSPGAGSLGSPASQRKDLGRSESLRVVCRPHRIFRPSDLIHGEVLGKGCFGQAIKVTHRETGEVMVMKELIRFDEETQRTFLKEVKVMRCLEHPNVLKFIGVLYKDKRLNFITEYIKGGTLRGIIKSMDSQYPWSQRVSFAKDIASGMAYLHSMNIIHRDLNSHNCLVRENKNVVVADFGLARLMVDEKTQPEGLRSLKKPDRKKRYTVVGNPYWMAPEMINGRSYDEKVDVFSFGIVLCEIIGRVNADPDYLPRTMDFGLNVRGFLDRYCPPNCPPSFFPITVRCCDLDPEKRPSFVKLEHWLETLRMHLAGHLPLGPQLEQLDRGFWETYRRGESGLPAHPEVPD
Description: as §1

NEK2 = target: T17, NEK2 (Homo sapiens, UniProt P51955); experiment: Millipore KinaseProfiler; format: biochemical; conditions: read-out: % of control
T17 construct: purchased Millipore (KinaseProfiler service)
Description: as §1

CDK5/p35 = target: T18, CDK5/p35 (Homo sapiens, UniProt Q00535); experiment: Millipore KinaseProfiler; format: biochemical; conditions: read-out: % of control
T18 construct: purchased Millipore (KinaseProfiler service)
Description: as §1

TBK1 = target: T19, TBK1 (Homo sapiens, UniProt Q9UHD2); experiment: Millipore KinaseProfiler; format: biochemical; conditions: read-out: % of control
T19 construct: purchased Millipore (KinaseProfiler service)
T19 sequence (Q9UHD2 whole entry): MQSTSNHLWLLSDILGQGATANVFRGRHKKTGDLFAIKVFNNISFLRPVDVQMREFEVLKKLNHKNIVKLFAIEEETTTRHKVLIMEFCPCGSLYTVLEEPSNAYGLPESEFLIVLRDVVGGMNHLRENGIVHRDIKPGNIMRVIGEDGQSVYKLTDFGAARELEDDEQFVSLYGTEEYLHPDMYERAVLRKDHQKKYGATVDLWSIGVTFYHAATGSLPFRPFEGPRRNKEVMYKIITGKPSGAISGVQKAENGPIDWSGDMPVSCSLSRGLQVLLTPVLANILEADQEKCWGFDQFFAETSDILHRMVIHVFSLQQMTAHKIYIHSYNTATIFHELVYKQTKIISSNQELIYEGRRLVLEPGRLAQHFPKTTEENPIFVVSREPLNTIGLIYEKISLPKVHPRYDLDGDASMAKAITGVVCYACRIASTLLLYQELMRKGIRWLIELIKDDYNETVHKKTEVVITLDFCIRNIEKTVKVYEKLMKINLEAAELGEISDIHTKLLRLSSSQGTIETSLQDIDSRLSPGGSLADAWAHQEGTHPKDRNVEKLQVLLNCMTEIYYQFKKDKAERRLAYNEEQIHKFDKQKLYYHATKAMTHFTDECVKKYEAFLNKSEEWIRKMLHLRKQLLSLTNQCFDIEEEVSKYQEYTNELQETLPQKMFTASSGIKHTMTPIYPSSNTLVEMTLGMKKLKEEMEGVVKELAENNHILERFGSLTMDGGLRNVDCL
Description: as §1

EGFR(T790M,L858R) = target: T20, EGFR(T790M,L858R) (Homo sapiens, UniProt P00533, L858R/T790M); experiment: Millipore KinaseProfiler; format: biochemical; conditions: read-out: % of control
T20 construct: purchased Millipore (KinaseProfiler service)
Description: as §1

MELK = target: T21, MELK (Homo sapiens, UniProt Q14680); experiment: Millipore KinaseProfiler; format: biochemical; conditions: read-out: % of control
T21 construct: purchased Millipore (KinaseProfiler service)
Description: as §1

IRAK1 = target: T22, IRAK1 (Homo sapiens, UniProt P51617); experiment: Millipore KinaseProfiler; format: biochemical; conditions: read-out: % of control
T22 construct: purchased Millipore (KinaseProfiler service)
Description: as §1

p110α = target: T23, p110α (Homo sapiens, UniProt P42336); experiment: Biochemical PI3K inhibition assay, p110α
T23 construct: His-tag; made in house; host or cells: Sf9 insect cells (baculovirus)
T23 sequence (P42336 whole entry): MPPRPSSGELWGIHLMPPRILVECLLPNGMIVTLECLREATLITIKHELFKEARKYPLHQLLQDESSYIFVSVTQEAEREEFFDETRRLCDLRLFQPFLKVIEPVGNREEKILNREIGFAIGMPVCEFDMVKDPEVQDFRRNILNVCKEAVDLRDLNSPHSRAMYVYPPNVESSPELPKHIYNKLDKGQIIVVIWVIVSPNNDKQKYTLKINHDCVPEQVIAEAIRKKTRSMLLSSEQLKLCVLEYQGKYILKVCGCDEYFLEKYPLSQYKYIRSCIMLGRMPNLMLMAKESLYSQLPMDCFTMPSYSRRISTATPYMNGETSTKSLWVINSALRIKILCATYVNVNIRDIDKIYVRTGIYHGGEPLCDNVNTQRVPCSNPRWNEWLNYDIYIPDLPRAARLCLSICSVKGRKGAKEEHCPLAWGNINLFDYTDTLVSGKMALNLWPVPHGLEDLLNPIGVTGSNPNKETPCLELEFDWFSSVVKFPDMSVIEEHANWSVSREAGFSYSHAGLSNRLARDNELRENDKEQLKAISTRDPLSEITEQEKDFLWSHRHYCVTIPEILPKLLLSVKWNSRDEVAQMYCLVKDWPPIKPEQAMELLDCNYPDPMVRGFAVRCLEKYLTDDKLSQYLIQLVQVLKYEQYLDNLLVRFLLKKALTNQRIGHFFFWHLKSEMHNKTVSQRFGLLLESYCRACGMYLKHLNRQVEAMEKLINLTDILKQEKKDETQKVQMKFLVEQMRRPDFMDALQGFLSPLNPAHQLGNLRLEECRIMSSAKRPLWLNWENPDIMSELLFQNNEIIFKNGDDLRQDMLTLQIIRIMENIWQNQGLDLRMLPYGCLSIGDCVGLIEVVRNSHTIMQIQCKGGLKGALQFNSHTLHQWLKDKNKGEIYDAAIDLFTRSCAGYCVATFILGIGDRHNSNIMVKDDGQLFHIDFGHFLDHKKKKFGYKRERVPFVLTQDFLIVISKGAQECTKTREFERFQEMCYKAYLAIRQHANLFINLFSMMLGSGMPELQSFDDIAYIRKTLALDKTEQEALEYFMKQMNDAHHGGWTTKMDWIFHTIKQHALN
T23 sequence (P27986 322-600 partner limits assumed): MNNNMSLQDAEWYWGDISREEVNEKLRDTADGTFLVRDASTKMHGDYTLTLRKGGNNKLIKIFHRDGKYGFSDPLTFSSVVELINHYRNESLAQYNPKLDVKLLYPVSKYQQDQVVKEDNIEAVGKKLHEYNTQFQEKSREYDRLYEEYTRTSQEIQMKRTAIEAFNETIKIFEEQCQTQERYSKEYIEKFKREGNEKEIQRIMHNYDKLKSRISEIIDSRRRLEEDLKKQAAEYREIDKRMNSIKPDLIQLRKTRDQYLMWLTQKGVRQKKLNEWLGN
Description: PIK3CD was generously provided by Novartis Pharmaceuticals. […] Sf9 cells were lysed in a buffer containing 50 mM sodium phosphate, pH 8.0, 400 mM NaCl, 5% glycerol, 1% Triton X-100, 10 mM 2-mercaptoethanol, 1 mM orthovanadate, 10 mM imidazole, and sonicated on ice for 1 minute. Proteins were purified by adding Ni-NTA Superflow beads (Qiagen, Valencia, CA, USA) to the lysate and subsequent rolling for 30 min at 4°C. Beads were washed twice with 50 mM phosphate buffer, pH 8.0, 0.5 M NaCl, 50 mM Imidazole, 2 mM DTT and eluted in the same buffer but with 200 mM imidazole. Purified PI3K's were mixed 1:1 with glycerol and stored at -20°C.
J-series inhibitors were dissolved, serial diluted in DMSO and deposited into 96 well plates at a final DMSO concentration of 1%. We used a novel assay to determine their potency and selectivity. […] Reactions were timed after the addition of 10 μM ATP with 40 μCi/ml γ-32P-ATP (PerkinElmer, Waltham, MA, USA) and 2 mM MgCl2 (all final concentrations). The reactions were terminated after two hours by the addition of 2 N HCl and the lipids extracted with 1:1 MetOH/Chloroform. Radio-labeled phosphatidyl-inositol-3-phosphate in the extracted organic fraction was quantified after the addition of Microscint O (PerkinElmer) using a TopCount 96 well plate scintillation counter (PerkinElmer). IC50 concentrations and inhibition curves were calculated using Prism 5 (GraphPad Software, La Jolla, CA).

T1 sequence (Q04759 whole entry): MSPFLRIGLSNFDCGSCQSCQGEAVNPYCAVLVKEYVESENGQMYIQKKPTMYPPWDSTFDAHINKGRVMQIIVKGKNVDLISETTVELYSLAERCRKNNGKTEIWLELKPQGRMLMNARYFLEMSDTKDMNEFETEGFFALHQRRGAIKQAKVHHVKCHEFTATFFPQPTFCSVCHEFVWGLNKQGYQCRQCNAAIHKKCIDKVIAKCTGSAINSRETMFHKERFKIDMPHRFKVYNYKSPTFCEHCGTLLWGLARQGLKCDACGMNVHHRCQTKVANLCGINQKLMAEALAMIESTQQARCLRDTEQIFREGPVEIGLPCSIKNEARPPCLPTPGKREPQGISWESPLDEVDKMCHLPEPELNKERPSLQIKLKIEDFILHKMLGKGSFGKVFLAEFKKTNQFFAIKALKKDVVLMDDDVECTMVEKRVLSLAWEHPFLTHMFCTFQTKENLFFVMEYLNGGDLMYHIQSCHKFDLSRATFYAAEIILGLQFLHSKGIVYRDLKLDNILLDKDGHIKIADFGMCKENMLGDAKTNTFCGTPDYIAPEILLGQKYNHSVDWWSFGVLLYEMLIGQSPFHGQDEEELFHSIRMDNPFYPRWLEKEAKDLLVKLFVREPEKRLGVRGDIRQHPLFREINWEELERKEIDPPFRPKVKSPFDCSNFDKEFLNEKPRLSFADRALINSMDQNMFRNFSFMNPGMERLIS

With `CCN(/N=C/c1cnc2ccc(Br)cn12)S(=O)(=O)c1cc([N+](=O)[O-])c(NC(=O)C(F)(F)F)cc1C` [J124] as the compound, how does the remaining activity at 0.011 µM (PKCθ) read?
Its remaining activity at 0.011 µM is 35%.

And the remaining activity at 0.011 µM (ACK1)?
Its remaining activity at 0.011 µM is 30%.

And the remaining activity at 0.011 µM (Mer)?
Its remaining activity at 0.011 µM is 33%.

And the remaining activity at 0.011 µM (CLK2)?
Its remaining activity at 0.011 µM is 5%.

And the remaining activity at 0.011 µM (cSRC)?
Its remaining activity at 0.011 µM is 48%.

And the remaining activity at 0.011 µM (Yes)?
Its remaining activity at 0.011 µM is 40%.

And the remaining activity at 0.011 µM (Ret)?
The remaining activity at 0.011 µM was 49%.

What about the remaining activity at 0.011 µM (Src(1-530)) of the same compound?
The remaining activity at 0.011 µM was 48%.

And the remaining activity at 0.011 µM (PTK5)?
Its remaining activity at 0.011 µM is 11%.

And the remaining activity at 0.011 µM (EphB1)?
The remaining activity at 0.011 µM was 46%.

What about the remaining activity at 0.011 µM (TrkA) of the same compound?
The remaining activity at 0.011 µM was 11%.

And the remaining activity at 0.011 µM (Haspin)?
Its remaining activity at 0.011 µM is -1%.

What about the remaining activity at 0.011 µM (IRAK4) of the same compound?
Its remaining activity at 0.011 µM is 48%.

And the remaining activity at 0.011 µM (Flt3)?
Its remaining activity at 0.011 µM is 10%.

What about the remaining activity at 0.011 µM (Flt3(D835Y)) of the same compound?
Its remaining activity at 0.011 µM is 3%.

And the remaining activity at 0.011 µM (LIMK1)?
The remaining activity at 0.011 µM was 36%.

What about the remaining activity at 0.011 µM (NEK2) of the same compound?
Its remaining activity at 0.011 µM is 42%.

And the remaining activity at 0.011 µM (CDK5/p35)?
The remaining activity at 0.011 µM was 37%.

What about the remaining activity at 0.011 µM (TBK1) of the same compound?
Its remaining activity at 0.011 µM is 46%.

And the remaining activity at 0.011 µM (EGFR(T790M,L858R))?
The remaining activity at 0.011 µM was 46%.

What about the remaining activity at 0.011 µM (MELK) of the same compound?
The remaining activity at 0.011 µM was 23%.

And the remaining activity at 0.011 µM (IRAK1)?
The remaining activity at 0.011 µM was 42%.

And the IC50 (p110α; 10 μM ATP, two hours)?
Its IC50 is 11 nM.

What about the “increase of inhibitory activity for PI3Kα” value (p110α; compared to J32) of the same compound?
Its value is 1.4 fold.
